Results from ChEMBL document CHEMBL3885861, “Open TG-GATES”.

Organism: Rattus norvegicus
Test: Open TG-GATES - Regimen: Single
Assay type: toxicity, organism-based, Sprague-Dawley
Set-up: regimen Single, gender Male, age 6 weeks
Conditions: in vivo, po, route gavage; for gamma-GTP / A/G / ALP / AST / BUN / CRE / Ca / Cl / DBIL / GLC / K / LDH / Na / PL / RALB / TBIL / TC / TG / ALT / IP / TP: tissue Plasma; for APTT / Bas / Eos / Fbg / Hb / Ht / Lym / MCH / MCHC / MCV / Mono / Neu / PT / Plat / RBC / Ret / WBC: tissue Blood; for KIDNEY_L / KIDNEY_R / KIDNEY_TOTAL: tissue Kidney; for LIVER: tissue Liver
[1] = 15 mg/kg, 3 h, dose level Middle
[2] = 15 mg/kg, 6 h, dose level Middle

SMILES: COc1ccc2c(c1)c(CC(=O)O)c(C)n2C(=O)c1ccc(Cl)cc1 [INDOMETHACIN]
- gamma-GTP (5 mg/kg, 9 h, dose level High): 2.6 IU/L
- A/G (5 mg/kg, 9 h, dose level Low): 1.7
- ALP (5 mg/kg, 9 h, dose level Low): 793.6 IU/L
- AST (5 mg/kg, 9 h, dose level Low): 72.6 IU/L
- BUN (5 mg/kg, 9 h, dose level Low): 9.8 mg/dL
- CRE (5 mg/kg, 9 h, dose level Low): 0.3 mg/dL
- Ca (5 mg/kg, 9 h, dose level Low): 10.3 mg/dL
- Cl (5 mg/kg, 9 h, dose level Low): 104 meq/L
- DBIL (5 mg/kg, 9 h, dose level Low): 0.076 mg/dL
- GLC (5 mg/kg, 9 h, dose level Low): 197.6 mg/dL
- K (5 mg/kg, 9 h, dose level Low): 3.8 meq/L
- LDH (5 mg/kg, 9 h, dose level Low): 194 IU/L
- Na (5 mg/kg, 9 h, dose level Low): 141.4 meq/L
- PL (5 mg/kg, 9 h, dose level Low): 137 mg/dL
- RALB (5 mg/kg, 9 h, dose level Low): 3.3 g/dL
- TBIL (5 mg/kg, 9 h, dose level Low): 0.1 mg/dL
- TC (5 mg/kg, 9 h, dose level Low): 76.2 mg/dL
- TG (5 mg/kg, 9 h, dose level Low): 31.8 mg/dL
- gamma-GTP (5 mg/kg, 9 h, dose level Low): 1.2 IU/L
- TERMINAL_BW (5 mg/kg, 24 h, dose level High): 211.4 g
- TERMINAL_BW (5 mg/kg, 24 h, dose level Low): 236.2 g
- APTT (5 mg/kg, 24 h, dose level High): 17.1 s
- Bas (5 mg/kg, 24 h, dose level High): 0%
- Eos (5 mg/kg, 24 h, dose level High): 0.8%
- Fbg (5 mg/kg, 24 h, dose level High): 232.2 mg/dL
- Hb (5 mg/kg, 24 h, dose level High): 13 g/dL
- Ht (5 mg/kg, 24 h, dose level High): 39.2%
- Lym (5 mg/kg, 24 h, dose level High): 78%
- MCH (5 mg/kg, 24 h, dose level High): 21.9 pg
- MCHC (5 mg/kg, 24 h, dose level High): 33.2%
- MCV (5 mg/kg, 24 h, dose level High): 65.9 fL
- Mono (5 mg/kg, 24 h, dose level High): 8.2%
- Neu (5 mg/kg, 24 h, dose level High): 13.4%
- PT (5 mg/kg, 24 h, dose level High): 12.2 s
- Plat (5 mg/kg, 24 h, dose level High): 100.7 x10_4/uL
- RBC (5 mg/kg, 24 h, dose level High): 595.4 x10_4/ul
- Ret (5 mg/kg, 24 h, dose level High): 9.8%
- WBC (5 mg/kg, 24 h, dose level High): 116.2 x10_2/uL
- APTT (5 mg/kg, 24 h, dose level Low): 18.6 s
- Bas (5 mg/kg, 24 h, dose level Low): 0.8%
- Fbg (5 mg/kg, 24 h, dose level Low): 249.8 mg/dL
- Hb (5 mg/kg, 24 h, dose level Low): 13.2 g/dL
- Ht (5 mg/kg, 24 h, dose level Low): 38.2%
- Lym (5 mg/kg, 24 h, dose level Low): 65.8%
- MCH (5 mg/kg, 24 h, dose level Low): 21.3 pg
- MCHC (5 mg/kg, 24 h, dose level Low): 34.5%
- MCV (5 mg/kg, 24 h, dose level Low): 61.7 fL
- Mono (5 mg/kg, 24 h, dose level Low): 3.2%
- Neu (5 mg/kg, 24 h, dose level Low): 29.2%
- PT (5 mg/kg, 24 h, dose level Low): 11.6 s
- Plat (5 mg/kg, 24 h, dose level Low): 117.7 x10_4/uL
- RBC (5 mg/kg, 24 h, dose level Low): 619.8 x10_4/ul
- Ret (5 mg/kg, 24 h, dose level Low): 7.2%
- WBC (5 mg/kg, 24 h, dose level Low): 111.3 x10_2/uL
- KIDNEY_L (5 mg/kg, 24 h, dose level High): 1 g
- KIDNEY_R (5 mg/kg, 24 h, dose level High): 1 g
- KIDNEY_TOTAL (5 mg/kg, 24 h, dose level High): 1.9 g
- KIDNEY_TOTAL (5 mg/kg, 24 h, dose level Low): 2.1 g
- LIVER (5 mg/kg, 24 h, dose level High): 9.9 g
- LIVER (5 mg/kg, 24 h, dose level Low): 11.3 g
- A/G (5 mg/kg, 24 h, dose level High): 2
- ALP (5 mg/kg, 24 h, dose level High): 879 IU/L
- ALT (5 mg/kg, 24 h, dose level High): 40.4 IU/L
- AST (5 mg/kg, 24 h, dose level High): 70.2 IU/L
- BUN (5 mg/kg, 24 h, dose level High): 15.4 mg/dL
- CRE (5 mg/kg, 24 h, dose level High): 0.5 mg/dL
- Ca (5 mg/kg, 24 h, dose level High): 10.4 mg/dL
- Cl (5 mg/kg, 24 h, dose level High): 106.2 meq/L
- DBIL (5 mg/kg, 24 h, dose level High): 0.006 mg/dL
- GLC (5 mg/kg, 24 h, dose level High): 197.2 mg/dL
- IP (5 mg/kg, 24 h, dose level High): 8.4 mg/dL
- K (5 mg/kg, 24 h, dose level High): 4.9 meq/L
- LDH (5 mg/kg, 24 h, dose level High): 146 IU/L
- Na (5 mg/kg, 24 h, dose level High): 138.8 meq/L
- PL (5 mg/kg, 24 h, dose level High): 133.4 mg/dL
- RALB (5 mg/kg, 24 h, dose level High): 3.7 g/dL
- TBIL (5 mg/kg, 24 h, dose level High): 0.3 mg/dL
- TC (5 mg/kg, 24 h, dose level High): 77.4 mg/dL
- TG (5 mg/kg, 24 h, dose level High): 65.2 mg/dL
- TP (5 mg/kg, 24 h, dose level High): 5.6 g/dL
- gamma-GTP (5 mg/kg, 24 h, dose level High): 1.4 IU/L
- A/G (5 mg/kg, 24 h, dose level Low): 1.5
- ALP (5 mg/kg, 24 h, dose level Low): 830.8 IU/L
- ALT (5 mg/kg, 24 h, dose level Low): 35.8 IU/L
- AST (5 mg/kg, 24 h, dose level Low): 70 IU/L
- BUN (5 mg/kg, 24 h, dose level Low): 13.2 mg/dL
- CRE (5 mg/kg, 24 h, dose level Low): 0.4 mg/dL
- Ca (5 mg/kg, 24 h, dose level Low): 10.7 mg/dL
- Cl (5 mg/kg, 24 h, dose level Low): 103.2 meq/L
- DBIL (5 mg/kg, 24 h, dose level Low): 0.06 mg/dL
- GLC (5 mg/kg, 24 h, dose level Low): 189.4 mg/dL
- IP (5 mg/kg, 24 h, dose level Low): 7.6 mg/dL
- K (5 mg/kg, 24 h, dose level Low): 3.9 meq/L
- LDH (5 mg/kg, 24 h, dose level Low): 234.2 IU/L
- Na (5 mg/kg, 24 h, dose level Low): 141.6 meq/L
- PL (5 mg/kg, 24 h, dose level Low): 144.6 mg/dL
- RALB (5 mg/kg, 24 h, dose level Low): 3.3 g/dL
- TBIL (5 mg/kg, 24 h, dose level Low): 0.1 mg/dL
- TC (5 mg/kg, 24 h, dose level Low): 73.6 mg/dL
- TG (5 mg/kg, 24 h, dose level Low): 82.8 mg/dL
- TERMINAL_BW [1]: 223.8 g
- APTT [1]: 19.8 s
- Bas [1]: 0.6%
- Eos [1]: 0.4%
- Fbg [1]: 232.4 mg/dL
- Hb [1]: 13.8 g/dL
- Ht [1]: 37.8%
- Lym [1]: 74.8%
- MCH [1]: 22.8 pg
- MCHC [1]: 36.5%
- MCV [1]: 62.5 fL
- Mono [1]: 3.4%
- Neu [1]: 19.6%
- PT [1]: 11.6 s
- Plat [1]: 132.9 x10_4/uL
- RBC [1]: 605.2 x10_4/ul
- Ret [1]: 8.5%
- WBC [1]: 104.8 x10_2/uL
- KIDNEY_L [1]: 0.9 g
- KIDNEY_R [1]: 0.9 g
- KIDNEY_TOTAL [1]: 1.9 g
- LIVER [1]: 10.3 g
- A/G [1]: 1.5
- ALP [1]: 827 IU/L
- ALT [1]: 36.2 IU/L
- AST [1]: 73.6 IU/L
- BUN [1]: 13 mg/dL
- CRE [1]: 0.4 mg/dL
- Ca [1]: 10.8 mg/dL
- Cl [1]: 102.6 meq/L
- DBIL [1]: 0.072 mg/dL
- GLC [1]: 209.2 mg/dL
- IP [1]: 9.8 mg/dL
- K [1]: 4.1 meq/L
- LDH [1]: 219.2 IU/L
- Na [1]: 141.2 meq/L
- PL [1]: 151.6 mg/dL
- RALB [1]: 3.3 g/dL
- TBIL [1]: 0.1 mg/dL
- TC [1]: 84.8 mg/dL
- TG [1]: 64.8 mg/dL
- TP [1]: 5.5 g/dL
- gamma-GTP [1]: 1 IU/L
- TERMINAL_BW [2]: 220.7 g
- APTT [2]: 19 s
- Bas [2]: 0%
- Eos [2]: 0.6%
- Fbg [2]: 224 mg/dL
